The values below come from ChEMBL document CHEMBL1141939, “Structure-activity relationship studies on a series of cyclohexylpiperazines bearing a phanylacetamide as ligands of the human melanocortin-4 receptor” (Bioorg Med Chem Lett, 2005).

The EC50 is the concentration giving half of the maximal effect. Read a low EC50 as greater potency. For orientation: Emax means the maximal effect, on the per cent scale that the assay sets. The Ki is the equilibrium dissociation constant of an inhibitor or competing ligand from its target.

Experiment [1] deals with T1, Melanocortin receptor 4 (Homo sapiens, UniProt P32245). As to the kind of experiment: cAMP stimulation in HEK293 cells transfected with human MC4R. The class given is functional, cell-based.
In experiment [2] the target is T1, Melanocortin receptor 4. Put plainly: biochemical. The class given is cell-based, HEK293.
Description: Displacement of [125I]NDP-MSH from human MC4R expressed in HEK293 cells

T1 sequence (P32245 whole entry): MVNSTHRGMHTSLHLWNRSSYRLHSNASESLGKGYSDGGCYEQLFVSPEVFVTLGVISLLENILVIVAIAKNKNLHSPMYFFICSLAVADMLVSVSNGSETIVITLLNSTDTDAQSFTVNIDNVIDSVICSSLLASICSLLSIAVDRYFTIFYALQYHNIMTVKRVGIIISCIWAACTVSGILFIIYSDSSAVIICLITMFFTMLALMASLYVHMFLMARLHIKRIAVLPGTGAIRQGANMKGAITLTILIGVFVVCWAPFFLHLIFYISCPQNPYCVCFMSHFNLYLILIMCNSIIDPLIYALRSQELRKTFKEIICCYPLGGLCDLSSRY

Turning to `O=C(Cc1ccccc1)NCC1(N2CCN(C(=O)[C@@H](Cc3ccc(Cl)cc3)NC(=O)[C@H]3Cc4ccccc4CN3)CC2)CCCCC1`, in experiment [1], the EC50 was found to be 33 nM and the Emax came to 96%. Moreover, the Ki in experiment [2] worked out at 16 nM.
Compound `O=C(Cc1ccccc1)NCC1(N2CCN(C(=O)[C@@H](Cc3ccc(Cl)cc3)NC(=O)c3ccc(F)cc3)CC2)CCCCC1` gave a Ki in experiment [2] of 97 nM.
As to `O=C(Cc1ccccc1)NCC1(N2CCN(C(=O)[C@@H](Cc3ccc(Cl)cc3)NC(=O)Cc3cccs3)CC2)CCCCC1`, in experiment [2], the Ki worked out at 80 nM.
Turning to `O=C(Cc1ccccc1)NCC1(N2CCN(C(=O)[C@@H](Cc3ccc(Cl)cc3)NC(=O)C3NCc4ccccc43)CC2)CCCCC1` (stereo partly specified), in experiment [1], the EC50 stood at 440 nM and the Emax is 43%. The compound also registered a Ki in experiment [2] of 99 nM.
With `CC(C)CC(=O)N[C@H](Cc1ccc(Cl)cc1)C(=O)N1CCN(C2(CNC(=O)Cc3ccccc3)CCCCC2)CC1`, the affinity in experiment [2] corresponds to a Ki of 270 nM.
In experiment [1], `O=C(Cc1ccccc1)NCC1(N2CCN(C(=O)[C@@H](Cc3ccc(Cl)cc3)NC(=O)CC3Cc4ccccc4CN3)CC2)CCCCC1` (stereo partly specified) registered an EC50 of 37 nM and an Emax of 96%. The compound also displayed a Ki in experiment [2] of 16 nM.
The like results for `NC1(C(=O)N[C@H](Cc2ccc(Cl)cc2)C(=O)N2CCN(C3(CNC(=O)Cc4ccccc4)CCCCC3)CC2)CCc2ccccc2C1` (stereo partly specified) were, in that order, 160 nM, 87% and 82 nM.
The compound `CC(=O)N[C@H](Cc1ccc(Cl)cc1)C(=O)N1CCN(C2(CNC(=O)Cc3ccccc3)CCCCC2)CC1` showed a Ki in experiment [2] of 110 nM.
In experiment [1], `O=C(Cc1ccccc1)NCC1(N2CCN(C(=O)[C@@H](Cc3ccc(Cl)cc3)NC(=O)C3Cc4ccccc4N3)CC2)CCCCC1` (stereo partly specified) had a concentration for a half-maximal effect (EC50) of 360 nM and an Emax of 22%. This compound returned a Ki in experiment [2] of 210 nM.
`O=C(Cc1ccccc1)NCC1(N2CCN(C(=O)[C@@H](Cc3ccc(Cl)cc3)NC(=O)C3CCCC3)CC2)CCCCC1` gave a Ki in experiment [2] of 230 nM.
In experiment [1], `NC1(C(=O)N[C@H](Cc2ccc(Cl)cc2)C(=O)N2CCN(C3(CNC(=O)Cc4ccccc4)CCCCC3)CC2)CCc2ccccc21` (stereo partly specified) displayed an EC50 of 810 nM and an Emax of 51%. This compound also had a Ki in experiment [2] of 260 nM.
The like results for `NC(CC(=O)N[C@H](Cc1ccc(Cl)cc1)C(=O)N1CCN(C2(CNC(=O)Cc3ccccc3)CCCCC2)CC1)c1ccccc1` (stereo partly specified) were, in that order, 270 nM, 61% and 42 nM.
Compound `O=C(Cc1ccccc1)NCC1(N2CCN(C(=O)[C@@H](Cc3ccc(Cl)cc3)NC(=O)C3CC3)CC2)CCCCC1` showed a Ki in experiment [2] of 130 nM.
As to `CN(C)CC(=O)N[C@H](Cc1ccc(Cl)cc1)C(=O)N1CCN(C2(CNC(=O)Cc3ccccc3)CCCCC2)CC1`, in experiment [1], the response was half-maximal at 300 nM (EC50) and the Emax worked out at 63%. Affinity in experiment [2] was put at a Ki of 100 nM.
Turning to `O=C(Cc1ccccc1)NCC1(N2CCN(C(=O)[C@@H](Cc3ccc(Cl)cc3)NC(=O)c3cccnc3)CC2)CCCCC1`, the affinity in experiment [2], expressed as Ki, was 60 nM.
Take `CCCCC(=O)N[C@H](Cc1ccc(Cl)cc1)C(=O)N1CCN(C2(CNC(=O)Cc3ccccc3)CCCCC2)CC1`: the Ki in experiment [2] amounted to 150 nM.
In experiment [1], `CC(C)(C)CC(=O)N[C@H](Cc1ccc(Cl)cc1)C(=O)N1CCN(C2(CNC(=O)Cc3ccccc3)CCCCC2)CC1` had an EC50 of 570 nM and an Emax of 43%. For the same compound, affinity in experiment [2] was put at a Ki of 750 nM.
`CC(C)COC(=O)N[C@H](Cc1ccc(Cl)cc1)C(=O)N1CCN(C2(CNC(=O)Cc3ccccc3)CCCCC2)CC1`: the Ki in experiment [2] came out at 280 nM.
In experiment [2], `CC(C)C(=O)N[C@H](Cc1ccc(Cl)cc1)C(=O)N1CCN(C2(CNC(=O)Cc3ccccc3)CCCCC2)CC1` had an inhibition constant Ki of 300 nM.
In experiment [1], `NC(C(=O)N[C@H](Cc1ccc(Cl)cc1)C(=O)N1CCN(C2(CNC(=O)Cc3ccccc3)CCCCC2)CC1)c1ccccc1` (stereo partly specified) displayed an EC50 of 530 nM and an Emax of 26%. For the same compound, the Ki in experiment [2] was determined as 79 nM.
As to `O=C(Cc1ccccc1)NCC1(N2CCN(C(=O)[C@@H](Cc3ccc(Cl)cc3)NC(=O)c3ccco3)CC2)CCCCC1`, the Ki in experiment [2] worked out at 100 nM.
In experiment [1], `NC(Cc1ccncc1)C(=O)N[C@H](Cc1ccc(Cl)cc1)C(=O)N1CCN(C2(CNC(=O)Cc3ccccc3)CCCCC2)CC1` (stereo partly specified) returned an EC50 of 590 nM and an Emax of 54%. For the same compound, the inhibitory constant (Ki) in experiment [2] worked out at 120 nM.
In experiment [2], `O=C(Cc1ccccc1)NCC1(N2CCN(C(=O)[C@@H](Cc3ccc(Cl)cc3)NC(=O)c3cnc4ccccc4c3)CC2)CCCCC1` displayed a Ki of 61 nM.
In experiment [1], `O=C(Cc1ccccc1)NCC1(N2CCN(C(=O)[C@@H](Cc3ccc(Cl)cc3)NC(=O)[C@@H]3Cc4ccccc4CN3)CC2)CCCCC1` returned an EC50 of 46 nM and an Emax of 76%. The compound further came in with a Ki in experiment [2] of 11 nM.
`CCC(CC)C(=O)N[C@H](Cc1ccc(Cl)cc1)C(=O)N1CCN(C2(CNC(=O)Cc3ccccc3)CCCCC2)CC1`: the inhibition constant Ki in experiment [2] turned out to be 1000 nM.
In turn, `CCCC(=O)N[C@H](Cc1ccc(Cl)cc1)C(=O)N1CCN(C2(CNC(=O)Cc3ccccc3)CCCCC2)CC1` registered a Ki in experiment [2] of 210 nM.
In experiment [1], `NC1(C(=O)N[C@H](Cc2ccc(Cl)cc2)C(=O)N2CCN(C3(CNC(=O)Cc4ccccc4)CCCCC3)CC2)Cc2ccccc2C1` yielded an EC50 of 280 nM and an Emax of 49%. The affinity in experiment [2] corresponds to a Ki of 140 nM.
For `O=C(Cc1ccccc1)NCC1(N2CCN(C(=O)[C@@H](Cc3ccc(Cl)cc3)NC(=O)C3CCC3)CC2)CCCCC1`, the Ki in experiment [2] came out at 140 nM.
Consider `COCC(=O)N[C@H](Cc1ccc(Cl)cc1)C(=O)N1CCN(C2(CNC(=O)Cc3ccccc3)CCCCC2)CC1`, for which, in experiment [2], the Ki turned out to be 170 nM.
As to `NC(Cc1ccccc1)C(=O)N[C@H](Cc1ccc(Cl)cc1)C(=O)N1CCN(C2(CNC(=O)Cc3ccccc3)CCCCC2)CC1` (stereo partly specified), in experiment [1], the EC50 was determined as 420 nM and the maximum response (Emax) is 62%. Besides, in experiment [2], the Ki came to 130 nM.
For the compound `CCC(=O)N[C@H](Cc1ccc(Cl)cc1)C(=O)N1CCN(C2(CNC(=O)Cc3ccccc3)CCCCC2)CC1`, in experiment [2], the Ki is 160 nM.
The same measure, in the same setting: with `O=C(Cc1ccccc1)NCC1(N2CCN(C(=O)[C@@H](Cc3ccc(Cl)cc3)NC(=O)c3ccccc3)CC2)CCCCC1` the figure was 84 nM; with `O=C(Cc1ccccc1)NCC1(N2CCN(C(=O)[C@@H](Cc3ccc(Cl)cc3)NC(=O)Cc3ccccc3F)CC2)CCCCC1`, 180 nM.
